In PubChem BioAssay (NCI):
Several values for one entry are separate records, joined by “and”; a condition that tells them apart may be missing. Identical values can stand only once.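 How tested: cells in 96-well plates exposed to compound for 48 hours at five concentrations. GI50 is the concentration that inhibits growth by half. TGI: concentration producing complete growth inhibition.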

Assays:
Experiment in all cases: NCI-60 cell line screen, 48 h
NCI-H23 lung = tested on: NCI-H23 lung
HL-60(TB) leukemia = tested on: HL-60(TB) leukemia
SR leukemia = tested on: SR leukemia
HOP-62 NSCLC = tested on: HOP-62 NSCLC
KM12 colon = tested on: KM12 colon
HCT-15 colon = tested on: HCT-15 colon
HOP-92 NSCLC = tested on: HOP-92 NSCLC
SK-MEL-28 melanoma = tested on: SK-MEL-28 melanoma
OVCAR-5 ovarian = tested on: OVCAR-5 ovarian
NCI-H522 lung = tested on: NCI-H522 lung

| Compound | GI50 (NCI-H23 lung) | TGI (NCI-H23 lung) | GI50 (HL-60(TB) leukemia) | TGI (HL-60(TB) leukemia) | GI50 (SR leukemia) | TGI (SR leukemia) | GI50 (HOP-62 NSCLC) | TGI (HOP-62 NSCLC) | GI50 (KM12 colon) | TGI (KM12 colon) | GI50 (HCT-15 colon) | TGI (HCT-15 colon) | GI50 (HOP-92 NSCLC) | TGI (HOP-92 NSCLC) | GI50 (SK-MEL-28 melanoma) | TGI (SK-MEL-28 melanoma) | GI50 (OVCAR-5 ovarian) | TGI (OVCAR-5 ovarian) | TGI (NCI-H522 lung) | GI50 (NCI-H522 lung) |
| --- | --- | --- | --- | --- | --- | --- | --- | --- | --- | --- | --- | --- | --- | --- | --- | --- | --- | --- | --- | --- |
| C[C@]12CC[C@@H]3c4ccc(O)c([N+](=O)[O-])c4CC[C@H]3[C@@H]1CC[C@@H]2NS(=O)(=O)c1cccc(Br)c1 | 2 µM | 5.06 µM | 2.4 µM | 6.04 µM | 3.09 µM | 9.41 µM | 1.9 µM | 3.54 µM | 1.89 µM | 4.05 µM | 1.59 µM | 3.09 µM | 1.53 µM | 5.03 µM | 1.85 µM | 3.67 µM | 2.16 µM | 5.17 µM |  |  |
| OCC(O)CNc1ccnc2cc(Cl)ccc12 (stereo not given) |  | > 100 µM |  | > 100 µM |  | > 100 µM |  | > 100 µM |  | > 100 µM |  | > 100 µM |  | > 100 µM |  | > 100 µM |  | > 100 µM | > 100 µM |  |
| Clc1ccc(N=CNc2ccc(-c3nc4ccccc4o3)cc2)cc1 |  |  | 38.5 µM | > 100 µM | 40.6 µM | > 100 µM | > 100 µM | > 100 µM | 15.4 µM | 38.7 µM | 24.5 µM | > 100 µM | 57.1 µM | > 100 µM |  |  | 33.3 µM | 99.6 µM |  |  |
| [F][Sn]([F])([c]1ccccc1)[c]1ccccc1 | 1.85 µM | 3.7 µM | 1.01 µM | 3.07 µM | 1.18 µM | 3.81 µM | 2.32 µM | 4.85 µM | 1.7 µM | 3.43 µM | 1.65 µM | 3.26 µM | 1.48 µM | 3.13 µM | 1.96 µM | 3.75 µM | 1.51 µM | 3.69 µM |  |  |
| CCOc1ccccc1NC(=O)C(=O)Cc1nc2ccccc2s1 |  | > 100 µM |  | > 100 µM |  | > 100 µM |  | > 100 µM |  | > 100 µM |  | > 100 µM |  | > 100 µM |  | > 100 µM |  |  | > 100 µM |  |
| Nc1nc(N)c2cc(CNc3ccc(C(=O)NC(CC(=O)O)C(=O)O)c(Cl)c3)ccc2n1 (stereo not given) | 0.05 µM | 64 µM and 491 µM |  | > 500 µM |  | > 500 µM | 0.308 µM and 0.05 µM | > 500 µM |  | > 500 µM | 0.05 µM | > 500 µM |  |  |  | > 4.64 µM | 0.05 µM | > 500 µM | > 500 µM | 342 µM |
| CC[C@@]1(O)C(=O)OCc2c1cc1n(c2=O)Cc2c-1nc1cc(F)c(C)c3c1c2[C@@H](N)CC3 | < 0.01 µM | 0.0638 µM | < 0.01 µM |  | < 0.01 µM | > 100 µM | < 0.01 µM | 0.159 µM | 0.0203 µM | 24.7 µM | 0.0215 µM | > 100 µM | < 0.01 µM | 0.307 µM |  |  | 0.0201 µM |  | 0.531 µM | < 0.01 µM |
| OCCNCCOc1ccc(/C(=C(/Cl)c2ccccc2)c2ccccc2)cc1 |  | 28.4 µM |  | 4.52 µM |  | 12.5 µM |  | 31.4 µM |  | 13.5 µM |  | 18.6 µM |  |  |  | 3.16 µM |  | 28.3 µM | 28.8 µM |  |
| Cc1ccc(S(=O)(=O)NC(=O)NC2=NC(C)(C)N(c3ccc(Cl)c(Cl)c3)C(N)=N2)cc1 |  | > 100 µM |  | > 100 µM |  | > 100 µM |  | > 100 µM |  | > 100 µM |  | > 100 µM |  |  |  | > 100 µM |  | > 100 µM | > 100 µM |  |
| O=C1CSC(c2ccc(-c3nc4ccccc4s3)cc2)=N1 |  |  | 18.4 µM | > 100 µM | 13.1 µM | 59.8 µM | 43.7 µM | > 100 µM | 3.11 µM | 13.8 µM | 51.9 µM | > 100 µM | > 100 µM | > 100 µM | 87.2 µM | > 100 µM | 26.3 µM | > 100 µM | 96.2 µM | 32.9 µM |
| O=S1(=O)OCCOS(=O)(=O)C1Cl |  | > 100 µM |  | > 100 µM |  | > 100 µM |  | > 100 µM |  | > 100 µM |  |  |  | > 100 µM |  | > 100 µM |  |  | > 100 µM |  |
| N#Cc1ccc(OC(=O)Nc2ccc(Cl)c(Cl)c2)cc1 | 2.79 µM | 13.7 µM | 5.7 µM | 30.9 µM | 7.67 µM | 93.2 µM | 7.5 µM | 60.7 µM | 3.27 µM | 12.8 µM | 2.94 µM | 13.8 µM | 1.9 µM | 7.34 µM | 5.53 µM | > 100 µM | 5.79 µM | > 100 µM |  |  |
| CCOC(CN(C)C(=S)Nc1cccc2ccccc12)OCC |  | > 10 µM |  | > 10 µM |  | > 10 µM |  | > 10 µM |  | > 10 µM |  | > 10 µM |  | > 10 µM |  | > 10 µM |  |  | > 10 µM |  |
